For data set [1], the system named is Ach-induced increase in Penh (airway reactivity). Kind of data set: Bronchodilation activity: barometric plethysmography, acetylcholine challenge after nebulised compound. The format is in vivo, guinea pig. As to conditions: for bronchoprotective effect: twenty-four hours. As for the experimental part:
Airway reactivity is measured using barometric plethysmography (Buxco, USA). Male guinea pigs (500-600 g) are individually placed in plexiglass chambers. After an acclimatisation period, animals are exposed to nebulised saline for 1 minute to obtain airway baseline reading. This is followed by a 1 minute challenge with nebulised acetylcholine (Ach)-2.5 mg/mL. After 60 minutes, 5 minute nebulisation of vehicle or the compound I′ in the range 2.5-250 μM are applied, and Ach challenge is then repeated after 2, 5, 24, 48 and 72 hours (h). Recording of pressure fluctuations in the chambers are taken for 5 minutes after each nebulisation and analysed to calculate Enhanced Pause (Penh). Airway reactivity is expressed as percentage increase in Penh compared with Penh values from the nebulisation of vehicle.

A short description of data set [2]: Estimation of lung levels after nebulisation. It counts as in vivo, guinea pig. As to conditions: nebulisation with submaximal bronchodilator activity, 2 hours after treatment.
In data set [3] the target is T1, M2 muscarinic receptors (Homo sapiens, UniProt P08172).
T1 sequence (P08172 1-466): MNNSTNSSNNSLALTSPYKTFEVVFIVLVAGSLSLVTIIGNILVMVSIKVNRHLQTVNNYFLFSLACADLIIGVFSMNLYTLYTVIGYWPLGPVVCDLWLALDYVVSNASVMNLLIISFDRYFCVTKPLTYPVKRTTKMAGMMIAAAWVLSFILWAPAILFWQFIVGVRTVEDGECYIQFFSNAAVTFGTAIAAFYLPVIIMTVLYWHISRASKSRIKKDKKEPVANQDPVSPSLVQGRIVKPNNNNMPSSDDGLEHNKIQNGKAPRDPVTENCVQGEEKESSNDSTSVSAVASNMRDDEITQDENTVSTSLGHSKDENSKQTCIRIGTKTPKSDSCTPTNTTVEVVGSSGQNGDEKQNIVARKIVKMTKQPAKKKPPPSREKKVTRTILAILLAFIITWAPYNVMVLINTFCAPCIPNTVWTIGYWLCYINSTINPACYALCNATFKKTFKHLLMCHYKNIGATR
Kind of data set: Duration of action / dissociation kinetics at M2 receptors. The note with it: compared with tiotropium bromide.

For data set [4], the system named is muscarinic receptors. The data set is described as follows: Receptor potency and duration of action compared with tiotropium bromide.

Structures can show the parent of a compound that is named as a salt.

Take “3-[[[(3-fluorophenyl)[(3,4,5-trifluoro phenyl)methyl]amino]carbonyl]oxy]-1-[2-oxo-2-(2-thienyl)ethyl]-1-azoniabicyclo[2.2.2]octane [compound 1′]”: the bronchoprotective effect in data set [1] (25 μM inhaled) was found to be 63.7±15.1%; in data set [1] (50 μM inhaled), 87.1±8.7%. In data set [1] (50 μM inhaled, 48 hours), the inhibition – broadly, how much of the control response was suppressed – is reported as 49.2±23.2%. For the same compound, in data set [1] (50 μM nebulised, two hours after end of nebulisation), the “maximal effect, inhibition of Ach-induced increase in Penh” value is recorded as 99.6±0.4. Moreover, in data set [1] (250 μM inhaled, 48 hours), the “effect (inhibition of Ach-induced increase in Penh)” value was 83.0±16.1%. Further, the residual activity in data set [1] (250 μM inhaled, 72 hours) was found to be 34.8±20.9%. In data set [1] (increasing dose), the “time-course of the effect (duration of action)” value is listed as “increasing duration of action with increasing dose”. The duration of effect in data set [1] (inhalation of lower concentrations (below 25 μM)) is at most 5 h. Also, in data set [1] (two hours after end of nebulisation, 2.5-250 μM), the “dose dependence of inhibition of Ach-induced increase in Penh” value is “dose-dependently inhibited”. Moreover, in data set [2], the “retained dose in the target organ (lung)” value is “about 50 μg/kg”.
On to `O=C(C[N+]12CCC(CC1)C(OC(=O)N(Cc1cc(F)c(F)c(F)c1)c1cccc(F)c1)C2)c1cccs1` (stereo not shown) [chloride salt of compound 1, 3-[[[(3-fluorophenyl)[(3,4,5-trifluorophenyl)methyl]amino]carbonyl]oxy]-1-[2-oxo-2-(2-thienyl)ethyl]-1-azoniabicyclo[2.2.2]octane], for which the “duration of action on the M2 receptors” value in data set [3] is “significantly short-acting”. Moreover, in data set [4], the duration of action result is recorded as “equieffective to tiotropium bromide” and the receptor potency entry is recorded as “equieffective to tiotropium bromide”.

(Values after patent US20090192187A1, “DRY POWDER FORMULATION COMPRISING AN ANTIC[…]” (Chiesi Farmaceutici S.p.A., priority 2008, published 2009).)
